Values quoted from earlier work, collected in patent publication US20050276865A1, “Peroxide compounds for the prevention and treatment of sexual dysfunction in humans” (priority 2004, published 2005).

Legend:
[1] = not given; remark: listed apart in the source
men with ED = conditions: injection into the corpus cavernosum (Montorsi et al. 1997)

| Compound | Solubility in water | Stability in aqueous medium (aqueous medium) | Irritancy as reported ([1]; NTF Chemical Repository) | Toxicity and carcinogenicity concerns ([1]; according to many studies (Haywood et al. 1991)) | Men who achieved improved spontaneous erections and required less frequent injections (men with ED) |
| --- | --- | --- | --- | --- | --- |
| NC(N)=O.OO [Carbamide peroxide, carbamide peroxide] | water-soluble | highly unstable | irritant | unfounded |  |
| CCCCC[C@H](O)/C=C/[C@H]1[C@H](O)CC(=O)[C@@H]1CCCCCCC(=O)O [prostaglandin E1] |  |  |  |  | 28% |
